Laboratory results taken from ChEMBL document CHEMBL1137799, “Bisbenzylisoquinoline alkaloids” (J Nat Prod, 1991).
pIC50: −log10 of the molar value. Values after ≈ are worked out from the molar mass of the structure shown.

What was measured:
[1] = Inhibition of formyl-methionyl-leucyl-phenylalanine induced superoxide generation in PMNC; format: functional
[2] = species on record: Mus musculus; assay: Inhibition of 12-O-tetradecanoylphorbol-13-acetate-induced carcinogenic activity in mouse ear at 2 mg, applied locally; format: functional
[3] = Inhibition of phorbol myristate acetate-induced superoxide anion production in mouse peritoneal exudate cells at 5 ug/ml; format: functional
[4] = Inhibition of phorbol myristate acetate-induced superoxide anion production in mouse peritoneal exudate cells at 50 ug/ml; format: functional
[5] = Protein binding in Wistar rat serum at 5 mg/kg, iv and po; format: ADME, organism-based; set-up: dose 5 mg/kg, route oral; details: read-out: PB (converted)
[6] = Half life in Wistar rat at 5 mg/kg, iv and po; format: ADME, organism-based; set-up: dose 5 mg/kg, route oral; details: in vivo
[7] = Half life in Wistar rat testis at 5 mg/kg, iv and po; format: ADME, organism-based; set-up: dose 5 mg/kg, route oral
[8] = Drug absorption in digestive tract of Wistar rat at 5 mg/kg, iv and po; format: ADME, organism-based; set-up: dose 5 mg/kg, route oral; details: in vivo, read-out: Drug uptake
[9] = tested on: Homo sapiens; assay: Increase in N-methyl-curine-induced neuromuscular blocking in patient during endotracheal intubation administered through inhalation; format: functional, organism-based
[10] = tested on: Plasmodium falciparum; assay: Antimalarial activity against Plasmodium falciparum; format: functional, organism-based
[11] = target: Dual specificity calcium/calmodulin-dependent 3',5'-cyclic nucleotide phosphodiesterase 1A (Homo sapiens, UniProt P54750); assay: Inhibition of calmodulin-dependent phosphodiesterase
[12] = target: Muscarinic acetylcholine receptor; assay: Displacement of [3H]QNB from rat brain muscarinic receptor
[13] = Inhibition of calmodulin-stimulated Ca2+/Mg2+ ATPase activity in human erythrocyte membrane; format: cell membranes
[14] = Toxicity in ip dosed rat; format: organism-based; details: in vivo

Dual specificity calcium/calmodulin-dependent 3',5'-cyclic nucleotide phosphodiesterase 1A, sequence (P54750 whole entry): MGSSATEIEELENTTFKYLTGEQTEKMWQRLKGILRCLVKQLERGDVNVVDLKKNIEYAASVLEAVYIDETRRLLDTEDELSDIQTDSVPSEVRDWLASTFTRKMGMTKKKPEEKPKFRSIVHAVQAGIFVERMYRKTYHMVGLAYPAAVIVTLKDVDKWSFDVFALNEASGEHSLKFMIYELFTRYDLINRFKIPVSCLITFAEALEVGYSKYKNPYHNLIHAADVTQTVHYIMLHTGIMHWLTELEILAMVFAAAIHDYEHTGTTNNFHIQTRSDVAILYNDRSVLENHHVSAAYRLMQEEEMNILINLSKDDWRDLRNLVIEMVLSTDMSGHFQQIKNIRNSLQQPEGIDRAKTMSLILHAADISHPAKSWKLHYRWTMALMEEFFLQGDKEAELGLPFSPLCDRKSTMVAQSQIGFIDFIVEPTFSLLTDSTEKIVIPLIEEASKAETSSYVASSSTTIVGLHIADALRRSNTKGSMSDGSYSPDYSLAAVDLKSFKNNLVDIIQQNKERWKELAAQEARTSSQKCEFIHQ

SMILES | inhibition (INH) [1] [%] | IC50 [10] [µg/mL] | other results
COc1ccc2cc1Oc1ccc(cc1)C[C@H]1c3cc(c(OC)cc3CCN1C)Oc1c(O)c(OC)cc3c1[C@H](C2)N(C)CC3 [FANGCHINOLINE] | 82.4 | – | –
COc1ccc2cc1Oc1ccc(cc1)C[C@H]1c3c(cc4c(c3Oc3cc5c(cc3OC)CCN(C)[C@@H]5C2)OCO4)CCN1C [CEPHARANTHINE] | – | – | inhibition (INH) [2]: 78%; inhibition at 5 µg/mL [3]: 34%; inhibition at 50 µg/mL [4]: 85%
COc1ccc2cc1Oc1ccc(cc1)C[C@H]1c3c(cc4c(c3Oc3cc5c(cc3OC)CCN(C)[C@@H]5C2)O[14CH2]O4)CCN1C | – | – | fraction unbound [5]: 0.26; half-life [6]: 8 days; half-life [7]: 36 days; Fa [8]: 70%
FC(F)OC(F)(F)C(F)Cl (stereo unspecified) | – | – | inhibition [9]: Dose-dependent effect
COc1cc2c3cc1Oc1c(OC)c(OC)cc4c1[C@@H](Cc1ccc(O)c(c1)Oc1ccc(cc1)C[C@H]3N(C)CC2)N(C)CC4 [PYCNAMINE] | – | 0.15 (≈ 0.246 µM) | –
COc1cc2c3cc1Oc1c(OC)c(OC)cc4c1C(=NCC4)Cc1ccc(cc1)Oc1cc(ccc1O)CC3N(C)CC2 (stereo unspecified) [HYPOEPISTEPHANINE] | 34.1 | – | –
COc1cc2c3c4c1Oc1cc5c(cc1O4)[C@H](Cc1ccc(O)c(c1)Oc1ccc(cc1)C[C@@H]3N(C)CC2)N(C)CC5 [COCSULINE] | – | 15.6 (≈ 27.7 µM) | –
COc1ccc2cc1Oc1ccc(cc1)CC1NCCc3cc(O)c4c(c31)Oc1c(OC)cc3c(c1O4)[C@H](C2)N(C)CC3 (stereo partly specified) | – | 1.1 (≈ 1.9 µM) | –
COc1ccc2cc1Oc1ccc(cc1)C[C@H]1c3c(cc(OC)c(O)c3Oc3cc4c(cc3OC)CCN(C)[C@@H]4C2)CCN1C [HOMOAROMOLINE] | 67 | – | –
COc1cc2c3cc1Oc1c(OC)c(OC)cc4c1[C@@H](Cc1ccc(O)c(c1)Oc1ccc(cc1)C[C@@H]3N(C)CC2)N(C)CC4 [BERBAMINE] | 56.4 | – | pIC50 [11]: 4.66; Ki [12]: 1.9 ×10⁻⁷ M; pIC50 [13]: 4.22
COc1cc2c3cc1Oc1c(O)c(OC)cc4c1[C@@H](Cc1ccc(O)c(c1)Oc1ccc(cc1)C[C@@H]3N(C)CC2)N(C)CC4 [OBAMEGINE] | – | 0.51 (≈ 0.858 µM) | –
COc1ccc2cc1Oc1ccc(cc1)C[C@H]1c3cc(c(OC)cc3CCN1C)Oc1c(OC)c(OC)cc3c1[C@H](C2)N(C)CC3 [FANCHININ] | – | – | Ki [12]: 7.3 ×10⁻⁸ M
COc1ccc2cc1Oc1ccc(cc1)C[C@@H]1c3cc(c(OC)cc3CCN1C)Oc1c(OC)c(OC)cc3c1[C@@H](C2)N(C)CC3 [PHAEANTHINE] | – | 1.43 (≈ 2.3 µM) | –
COc1cc2c3cc1Oc1c(OC)c(OC)cc4c1[C@H](Cc1ccc(cc1)Oc1cc(ccc1O)C[C@H]3N(C)CC2)N(C)CC4 [AROMOLINE] | 63.1 | 0.67 (≈ 1.1 µM) | –
CCOCCCCOc1ccc2cc1Oc1ccc(cc1)C[C@H]1c3cc(c(OC)cc3CCN1C)Oc1c(OC)c(OC)cc3c1[C@@H](C2)N(C)CC3 | – | – | pIC50 [11]: 6.46; pIC50 [13]: 6.46
COc1cc2c(cc1OC)[C@@H](Cc1ccc(Oc3cc(C[C@@H]4c5cc(OC)c(OC)cc5CCN4C)ccc3O)cc1)N(C)CC2 [DAURICINE] | 50.8 | – | LD50 [14]: 205 mg/kg
COc1ccc(C[C@@H]2c3cc(Oc4cc(C[C@@H]5c6cc(OC)c(OC)cc6CCN5C)ccc4O)c(OC)cc3CCN2C)cc1 [NEFERINE] | 63.6 | – | –
COc1ccc(C[C@@H]2c3cc(Oc4cc(C[C@@H]5c6cc(O)c(OC)cc6CCN5C)ccc4O)c(OC)cc3CCN2C)cc1 [ISOLIENSININE] | 59.6 | – | –
COc1cc2c3cc1Oc1c4c(cc5c1[C@H](Cc1ccc(cc1)Oc1cc(ccc1O)C[C@H]3N(C)CC2)N(C)CC5)OCO4 [CEPHARANOLINE] | 56 | – | –
COc1c2cc3c(c1OC)CCN(C)[C@@H]3Cc1ccc(cc1)Oc1cc3c(c(OC)c1OC)CCN(C)[C@@H]3Cc1ccc(cc1)O2 [CYCLEANINE] | 36.2 | – | –
